Assay results reported in PubChem BioAssay (NCI).
Values joined by “and” are separate entries in the source; they are usually repeats but may differ in a detail not shown here. Identical values can stand only once.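 Results reflect a 48-hour exposure of cells in 96-well plates to compound at five concentrations. GI50 is the concentration that inhibits growth by half. Definition used: TGI = concentration required for complete inhibition of growth.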

Columns and labels:
Assay in all cases: NCI tumour cell line growth inhibition, 48 h
U251 CNS = tested on: U251 CNS
SK-MEL-5 melanoma = tested on: SK-MEL-5 melanoma
RPMI-8226 leukemia = tested on: RPMI-8226 leukemia
BT-549 breast = tested on: BT-549 breast
HOP-92 NSCLC = tested on: HOP-92 NSCLC
MCF7 breast = tested on: MCF7 breast
OVCAR-4 ovarian = tested on: OVCAR-4 ovarian
SNB-19 CNS = tested on: SNB-19 CNS
EKVX NSCLC = tested on: EKVX NSCLC
KM12 colon = tested on: KM12 colon
A549 NSCLC = tested on: A549 NSCLC
SK-OV-3 ovarian = tested on: SK-OV-3 ovarian

| SMILES | TGI (U251 CNS) [µM] | TGI (SK-MEL-5 melanoma) | TGI (RPMI-8226 leukemia) [µM] | TGI (BT-549 breast) [µM] | TGI (HOP-92 NSCLC) | TGI (MCF7 breast) [µM] | TGI (OVCAR-4 ovarian) | TGI (SNB-19 CNS) | TGI (EKVX NSCLC) [µM] | TGI (KM12 colon) | TGI (A549 NSCLC) [µM] | TGI (SK-OV-3 ovarian) [µM] | GI50 (RPMI-8226 leukemia) | GI50 (BT-549 breast) |
| --- | --- | --- | --- | --- | --- | --- | --- | --- | --- | --- | --- | --- | --- | --- |
| Cc1cnc2sn(-c3ccc([N+](=O)[O-])cc3)c(=O)c2c1 | > 100 | > 100 µM | > 100 | > 100 | > 100 µM | > 100 | > 100 µM | > 100 µM | > 100 | > 100 µM | > 100 | 81.4 | – | – |
| CN(Cc1cnc2nc(N)nc(N)c2n1)c1ccc(C(=O)N[C@@H](CCC(=O)O)C(=O)O)cc1 | > 250 | 179 µM and > 250 µM | > 250 | > 250 | 229 µM and > 250 µM | > 250 | 238 µM and > 250 µM | 211 µM and > 250 µM | > 250 | 239 µM and > 250 µM | > 250 | > 250 | – | – |
| Cc1nc(C)c(N2CCN(S(=O)(=O)N(Cc3ccccc3)Cc3ccccc3)CC2)c(=O)[nH]1 | 20.4 | > 100 µM | > 100 | > 100 | > 78.1 µM | > 100 | > 100 µM | 27.6 µM | > 100 | > 100 µM | > 100 | > 54.2 | – | – |
| CCN1CCC(O)(c2ccc(Oc3ccc(F)cc3)cc2)C(C(=O)c2ccc(Oc3ccc(F)cc3)cc2)C1 (centres undefined) | 30.1 | – | 8.03 | 29.1 | 24.4 µM | 26 | 29 µM | 29.6 µM | 31.8 | 18.3 µM | 29.5 | 32.2 | – | – |
| O=C(O)CCS/C(=C\C(SCCC(=O)O)c1ccc(Cl)cc1)c1ccc(Cl)cc1 (centres undefined) | > 100 | > 100 µM | 95.6 | 87.5 | > 100 µM | 60.9 | > 100 µM | > 100 µM | > 100 | 65.4 µM | > 100 | > 100 | – | – |
| CCN(CC)CCCNc1ccc2nc(C)n3c4ccc(O)cc4c(=O)c1c23 | 21 | 24.5 µM | 10.8 | 25.6 | 11.4 µM | 17.6 | 20.1 µM | 22 µM | 24.4 | 17.4 µM | 18.7 | 25.2 | – | – |
| CC(=N\N)/C(C)=N/N=C(C)/C(C)=N/N | > 100 | > 100 µM | > 100 | > 100 | > 100 µM | > 100 | > 100 µM | > 100 µM | > 100 | > 100 µM | > 100 | > 100 | – | – |
| Clc1ccc(C(c2ccccc2Cl)C(Cl)Cl)cc1 (centres undefined) | 36.8 | 36.1 µM | 49 | 30.2 | 32.1 µM | 37.8 | 35.7 µM | 37.6 µM | 32.6 | 37.1 µM | 35.4 | 39.7 | – | – |
| CC(NC(=O)NC(C)(C)C)NC(=O)C(N)CC(=O)O (centres undefined) | > 100 | > 100 µM | > 100 | > 100 | > 100 µM | > 100 | > 100 µM | > 100 µM | > 100 | > 100 µM | > 100 | > 100 | – | – |
| CCOC(=O)C1=C(O)C2C3CC4C2C(O)=C(C(=O)OCC)C2C1C3C42 (centres undefined) | > 100 | > 100 µM | > 100 | > 100 | > 100 µM | > 100 | > 100 µM | > 100 µM | > 100 | > 100 µM | > 100 | > 100 | – | – |
| O=C(/C=C/c1ccc(-c2ccccc2)cc1)NCc1ccc(C(=O)NCc2ccccc2)cc1 | > 100 | > 100 µM | – | > 100 | > 100 µM | > 100 | > 100 µM | > 100 µM | > 100 | > 100 µM | > 100 | > 100 | – | – |
| Clc1ccc(C2=NN=C3C(c4ccccc4)=Nc4ccccc4N3C2)cc1 | > 100 | 16.5 µM | > 29.4 | > 100 | > 93.2 µM | > 100 | > 43.9 µM | > 100 µM | > 27.1 | > 100 µM | > 100 | > 100 | – | – |
| O=S(=O)(Nc1nc2ccccc2nc1Nc1ccc2ccccc2c1)c1ccccc1 | > 100 | 42.6 µM | > 47 | > 80.1 | 51.3 µM | > 100 | > 44.9 µM | > 100 µM | > 100 | > 59.3 µM | > 100 | > 100 | – | – |
| C=C(C(=O)O)[C@@H]1C[C@@H]2O[C@H]1[C@@H](O)[C@@H](C)CCCC(C)=CCC[C@@]2(C)O | > 100 | > 100 µM | > 100 | > 100 | > 100 µM | > 100 | > 100 µM | > 100 µM | > 100 | > 100 µM | > 100 | > 100 | 25 µM and 55.9 µM | 33.5 µM and > 100 µM |
| O=C(/C=C/c1cccc(Oc2ccccc2)c1)NCc1ccc(C(=O)NCc2ccccc2)cc1 | > 100 | > 100 µM | > 100 | > 100 | > 100 µM | > 100 | > 100 µM | > 100 µM | > 100 | > 100 µM | > 100 | 29.8 | – | – |
| CN1C/C(=C\c2cccs2)C(O)/C(=C/c2cccs2)C1 (centres undefined) | > 100 | > 100 µM | 89.9 | > 100 | > 100 µM | > 100 | > 100 µM | > 100 µM | > 100 | > 100 µM | > 100 | > 100 | – | – |
| CC1=NC2=Nc3nc(C)cc[n+]3CN2C=C1 | > 100 | > 100 µM | 67.5 | > 100 | > 100 µM | > 100 | > 100 µM | > 100 µM | 75.8 | – | > 100 | > 100 | – | – |
| COc1ccc2nc(-c3ccccc3)cc(OCC(=O)O)c2c1 | > 100 | > 100 µM | > 100 | > 100 | > 100 µM | > 100 | – | > 100 µM | > 100 | > 100 µM | > 100 | > 100 | – | – |
